The results in this text go back to ChEMBL document CHEMBL6182886, “The Liebeskind-Srogl cross-coupling reaction towards the synthesis of biologically active compounds” (Eur J Med Chem, 2025).

Values after ≈ are worked out from the molar mass of the structure shown.

The target in one test is Cannabinoid receptor 1 (Rattus norvegicus, UniProt P20272). In words: Binding affinity to rat brain CB1 receptor assessed as inhibition constant. Type of test: tissue-based.
The target of another test is Cannabinoid receptor 2 (Mus musculus, UniProt P47936). In words: Binding affinity to mouse CB2 receptor extracted from HEK293 cell membrane assessed as inhibition constant. In kind it is cell membranes.
Sequence of Cannabinoid receptor 2 (P47936 whole entry): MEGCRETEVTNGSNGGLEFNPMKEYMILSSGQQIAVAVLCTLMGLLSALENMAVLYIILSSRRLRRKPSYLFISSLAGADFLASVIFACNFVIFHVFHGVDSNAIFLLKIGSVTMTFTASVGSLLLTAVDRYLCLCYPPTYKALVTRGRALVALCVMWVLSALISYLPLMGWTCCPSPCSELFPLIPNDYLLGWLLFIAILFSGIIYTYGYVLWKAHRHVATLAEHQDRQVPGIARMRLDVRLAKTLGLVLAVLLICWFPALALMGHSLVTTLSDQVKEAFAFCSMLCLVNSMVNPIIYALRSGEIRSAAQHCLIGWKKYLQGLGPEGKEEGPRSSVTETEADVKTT
A short description of test [1]: Cytotoxicity against human HOG.R5 cells. In kind it is functional, cell-based.
The subject of test [2] is Human immunodeficiency virus 1. In words: Antiviral activity against HIV-1 infected in human HOG.R5 cells assessed as reduction in viral growth. Type of test: functional, organism-based. Conditions: Human immunodeficiency virus 1, HOG.R5.
For a further test, the system named is KB. Put plainly: Cytotoxicity against human KB cells. In kind it is functional, cell-based.
Another test deals with L1210. In words: Cytotoxicity against mouse L1210 cells. Type of test: functional, cell-based.
The subject of a further test is P815. Put plainly: Anticancer activity against mouse P815 cells assessed as reduction in cell viability measured for 48 hrs by MTT assay. In kind it is functional, cell-based. Particulars: P815, 48 h.
The nature of test [3]: Anticancer activity against human HEP cells assessed as reduction in cell viability measured for 48 hrs by MTT assay. Type of test: toxicity, cell-based.

Sequence of Cannabinoid receptor 1 (P20272 whole entry): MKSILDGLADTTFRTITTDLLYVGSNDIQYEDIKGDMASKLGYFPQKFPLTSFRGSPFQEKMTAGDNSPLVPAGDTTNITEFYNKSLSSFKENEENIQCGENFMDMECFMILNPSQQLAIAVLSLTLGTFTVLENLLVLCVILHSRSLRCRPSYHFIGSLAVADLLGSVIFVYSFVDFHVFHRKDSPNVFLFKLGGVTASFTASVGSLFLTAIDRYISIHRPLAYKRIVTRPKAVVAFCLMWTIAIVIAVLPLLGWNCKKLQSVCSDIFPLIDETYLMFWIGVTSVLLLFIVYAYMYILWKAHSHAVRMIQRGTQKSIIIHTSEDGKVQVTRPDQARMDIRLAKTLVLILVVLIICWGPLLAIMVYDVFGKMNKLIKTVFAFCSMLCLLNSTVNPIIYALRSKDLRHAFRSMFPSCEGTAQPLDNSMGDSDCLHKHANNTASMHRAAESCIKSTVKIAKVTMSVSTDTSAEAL

On to `CCCCCCC1(c2cc(O)c3c(c2)OC(C)(C)[C@@H]2CC[C@@H](O)C[C@@H]32)CN(C)C1`, for which the Ki was 19.2 nM on Cannabinoid receptor 1 and 21.3 nM at Cannabinoid receptor 2.

For the compound `CC(C)=CCC/C(C)=C/[C@H]1C(=O)C(C)=C[C@@H]1O`, the half-maximal inhibitory concentration (IC50) in test [1] is 13.2 µg/mL (≈ 56.3 µM); in test [2], 5 µg/mL (≈ 21.3 µM).

With `C=C1/C=C(\C)[C@@H](C)[C@@H](O)CC(=O)[C@@H](C)CC(=O)C[C@H]2CC[C@@H](O2)[C@@H](/C=C/C=C(C)C)OC(=O)C[C@@H]2O[C@H](C[C@H]2C)[C@H](O)[C@@H]1O`, the 50% inhibitory concentration (IC50) turned out to be 3.2 µg/mL (≈ 5.19 µM) in the test with KB and 1.5 µg/mL (≈ 2.43 µM) in the test on L1210.

Consider `C=C1/C=C(\C)[C@@H](C)[C@@H](O)CC(=O)[C@@H](C)CC(=O)C[C@H]2CC[C@@H](O2)[C@@H](/C=C/C=C(\C)[C@@H](O)C(=C)CCCC)OC(=O)C[C@@H]2O[C@H](C[C@H]2C)[C@H](O)[C@@H]1O`, for which the IC50 with KB amounted to 0.0046 µg/mL (≈ 0.00643 µM); in the test on L1210 it was 0.0058 µg/mL (≈ 0.00811 µM).

For `CCCCCCCCCCCCCC[C@@H]1CCCN1C`, the values for the IC50 (in the test on P815; in test [3]) were 10 µg/mL (≈ 35.5 µM) and 5 µg/mL (≈ 17.8 µM), respectively.

For `COCOc1cc(C2=NCCC2)cc2c1[C@@H]1C[C@H](OCOC)CC[C@H]1C(C)(C)O2`, the Ki on Cannabinoid receptor 1 stood at 16.3 nM; at Cannabinoid receptor 2 it was 12.3 nM.

`CC(C)=CCC/C(C)=C\[C@H]1C(=O)C(C)=C[C@@H]1O`: the IC50 in test [1] is 5.7 µg/mL (≈ 24.3 µM); in test [2], 2 µg/mL (≈ 8.53 µM).

Usually Ki stands for a measure of affinity in units of concentration, obtained from inhibition or displacement. In general, IC50 refers to the concentration that inhibits the measured activity by half.
